Experimental data: patent US11591355B2 (Peloton Therapeutics, Inc., priority 2017, dated 2023)
Like-named read-outs stand apart in the source and are kept apart here.

Biological target: T1, Human CD73 (Homo sapiens, UniProt P21589)
T1 construct: purchased R&D Systems; host or cells: CHO cells
T1 sequence (P21589 27-549): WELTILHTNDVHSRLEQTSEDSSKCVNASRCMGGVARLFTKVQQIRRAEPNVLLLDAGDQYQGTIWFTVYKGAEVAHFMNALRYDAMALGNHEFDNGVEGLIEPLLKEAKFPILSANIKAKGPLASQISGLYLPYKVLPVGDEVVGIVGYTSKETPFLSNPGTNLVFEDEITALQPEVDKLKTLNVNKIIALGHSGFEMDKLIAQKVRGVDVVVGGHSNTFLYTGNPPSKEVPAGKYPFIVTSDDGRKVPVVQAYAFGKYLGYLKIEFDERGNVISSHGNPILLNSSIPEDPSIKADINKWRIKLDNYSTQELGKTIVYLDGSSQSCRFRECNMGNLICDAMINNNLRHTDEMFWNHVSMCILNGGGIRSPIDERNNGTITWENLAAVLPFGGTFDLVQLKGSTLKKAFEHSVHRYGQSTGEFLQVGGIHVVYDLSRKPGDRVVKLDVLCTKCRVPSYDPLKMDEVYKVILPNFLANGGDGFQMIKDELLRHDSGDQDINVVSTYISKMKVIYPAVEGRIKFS
Assay: CD73 Enzyme Assay
Format: biochemical

[1] = 0.25 nM hCD73, 25 μM AMP, kinetic read at 360 nm, read-out: CD73 Enzyme Assay IC50

Compound | IC50 [1] | IC50
Nc1ncnc2c1ncn2[C@@H]1O[C@H](COCP(=O)(O)O)[C@@H](O)[C@H]1O [Compound 2, [(2R,3S,4R,5R)-5-(6-aminopurin-9-yl)-3,4-dihydroxy-tetrahydrofuran-2-yl]methoxymethyl-phosphonic acid] | > 1 µM | 
CNc1nc(NCc2ccccc2)c2ncn([C@@H]3O[C@H](COCP(=O)(O)O)[C@@H](O)[C@H]3O)c2n1 [Compound 5, [(2R,3S,4R,5R)-5-[6-(benzylamino)-2-(methylamino)purin-9-yl]-3,4-dihydroxy-tetrahydrofuran-2-yl]methoxymethyl-phosphonic acid] | > 1 µM | 
O=C(O)c1nc(NCc2ccccc2)c2ncn([C@@H]3O[C@H](COCP(=O)(O)O)[C@@H](O)[C@H]3O)c2n1 [Compound 6, 6-(benzylamino)-9-[(2R,3R,4S,5R)-3,4-dihydroxy-5-(phos-phonomethoxy-methyl)tetrahydro-furan-2-yl]purine-2-carboxylic acid] | > 1 µM | 
CCOP(=O)(O)COC[C@H]1O[C@@H](n2cnc3c(NCc4ccccc4)ncnc32)[C@H](O)[C@@H]1O [Compound 7, [(2R,3S,4R,5R)-5-[6-(benzylamino)purin-9-yl]-3,4-dihydroxy-tetrahydrofuran-2-yl]-methoxymethyl-ethoxy-phosphinic acid] |  | > 1 µM
O=P(O)(O)COC[C@H]1O[C@@H](n2cnc3c(NCc4ccccc4)nc(-c4ccccc4)nc32)[C@H](O)[C@@H]1O [Compound 8, [(2R,3S,4R,5R)-5-[6-(benzylamino)-2-phenyl-purin-9-yl]-3,4-dihydroxy-tetrahydrofuran-2-yl]methoxymethylphosphonic acid] | 0.1 to 1 µM | 
O=P(O)(O)COC[C@H]1O[C@@H](n2cnc3c(NCc4ccccc4)nc(-c4cn[nH]c4)nc32)[C@H](O)[C@@H]1O [Compound 10, [(2R,3S,4R,5R)-5-[6-(benzylamino)-2-(1H-pyrazol-4-yl)purin-9-yl]-3,4-dihydroxy-tetrahydrofuran-2-yl]-methoxymethylphos-phonic acid] | 0.1 to 1 µM | 
CNc1ncnc2c1ncn2[C@@H]1O[C@H](COCP(=O)(O)O)[C@@H](O)[C@H]1O [Compound 11, [(2R,3S,4R,5R)-3,4-dihydroxy-5-[6-(methylamino)purin-9-yl]tetrahydrofuran-2-yl]methoxymethyl-phosphonic acid] | > 1 µM | 
O=P(O)(O)COC[C@H]1O[C@@H](n2cnc3c(NCCO)ncnc32)[C@H](O)[C@@H]1O [Compound 13, [(2R,3S,4R,5R)-3,4-dihydroxy-5-[6-(2-hydroxyethylamino)-purin-9-yl]tetrahydro-furan-2-yl]methoxy-methylphosphonic acid] | > 1 µM | 
CC(C)Nc1nc(Cl)nc2c1ncn2[C@@H]1O[C@H](COCP(=O)(O)O)[C@H]2OC(C)(C)O[C@H]21 [Compound 14, [(3aR,4R,6R,6aR)-4-[2-chloro-6-(isopropyl-amino)purin-9-yl]-2,2-dimethyl-3a,4,6,6a-tetrahydrofuro[3,4-d] [1,3]dioxol-6-yl]-methoxymethylphos-phonic acid] | > 1 µM | 
CCNc1ncnc2c1ncn2[C@@H]1O[C@H](COCP(=O)(O)O)[C@@H](O)[C@H]1O [Compound 17, [(2R,3S,4R,5R)-5-[6-(ethylamino)purin-9-yl]-3,4-dihydroxy-tetrahydrofuran-2-yl]-methoxymethylphos-phonic acid] | > 1 µM | 
O=P(O)(O)COC[C@H]1O[C@@H](n2cnc3c(NCc4ccccn4)ncnc32)[C@H](O)[C@@H]1O [Compound 19, [(2R,3S,4R,5R)-3,4-dihydroxy-5-[6-(2-pyridylmethylamino)-purin-9-yl]tetrahydro-furan-2-yl]methoxy-methylphosphonic acid] | > 1 µM | 
O=P(O)(O)COC[C@H]1O[C@@H](n2cnc3c(NCc4ccccc4)nc(Cc4ccccc4)nc32)[C@H](O)[C@@H]1O [Compound 22, [(2R,3S,4R,5R)-5-[2-benzyl-6-(benzyl-amino)purin-9-yl]-3,4-dihydroxy-tetrahydro-furan-2-yl]methoxy-methylphosphonic acid] | 0.1 to 1 µM | 
O=P(O)(O)COC[C@H]1O[C@@H](n2cnc3c(NC4(c5ccccc5)CC4)ncnc32)[C@H](O)[C@@H]1O [Compound 23] | > 1 µM | 
O=P(O)(O)COC[C@H]1O[C@@H](n2cnc3c(NC4CC4)ncnc32)[C@H](O)[C@@H]1O [Compound 24, [(2R,3S,4R,5R)-5-[6-(cyclopropylamino)-purin-9-yl]-3,4-dihydroxy-tetrahydro-furan-2-yl]methoxy-methylphosphonic acid] | > 1 µM | 
NCCNc1ncnc2c1ncn2[C@@H]1O[C@H](COCP(=O)(O)O)[C@@H](O)[C@H]1O [Compound 25, [(2R,3S,4R,5R)-5-[6-(2-aminoethylamino)-purin-9-yl]-3,4-dihydroxy-tetrahydro-furan-2-yl]methoxy-methylphosphonic acid] | > 1 µM | 
O=P(O)(O)COC[C@H]1O[C@@H](n2cnc3c(NCCCO)ncnc32)[C@H](O)[C@@H]1O [Compound 26, [(2R,3S,4R,5R)-3,4-dihydroxy-5-[6-(3-hydroxypropylamino)-purin-9-yl]tetrahydro-furan-2-yl]methoxy-methylphosphonic acid] | > 1 µM | 

Compound | IC50 [1] | IC50
O=P(O)(O)COC[C@H]1O[C@@H](n2cnc3c(NCc4cccnc4)ncnc32)[C@H](O)[C@@H]1O [Compound 27, [(2R,3S,4R,5R)-3,4-dihydroxy-5-[6-(3-pyridylmethylamino)-purin-9-yl]tetrahydro-furan-2-yl]methoxy-methylphosphonic acid] | > 1 µM | 
O=P(O)(O)COC[C@H]1O[C@@H](n2cnc3c(NCc4ccncc4)ncnc32)[C@H](O)[C@@H]1O [Compound 28, [(2R,3S,4R,5R)-3,4-dihydroxy-5-[6-(4-pyridylmethylamino)-purin-9-yl]tetrahydro-furan-2-yl]methoxy-methylphosphonic acid] | > 1 µM | 
O=P(O)(O)COC[C@H]1O[C@@H](n2cnc3c(NCCc4ccccc4)ncnc32)[C@H](O)[C@@H]1O [Compound 29, [(2R,3S,4R,5R)-3,4-dihydroxy-5-[6-(2-phenylethylamino)-purin-9-yl]tetrahydro-furan-2-yl]methoxy-methylphosphonic acid] | 0.1 to 1 µM | 
O=P(O)(O)COC[C@H]1O[C@@H](n2cnc3c(Nc4ccccc4)ncnc32)[C@H](O)[C@@H]1O [Compound 30, [(2R,3S,4R,5R)-5-(6-anilinopurin-9-yl)-3,4-dihydroxy-tetrahydro-furan-2-yl]methoxy-methylphosphonic acid] | > 1 µM | 
CC(C)N(C)c1ncnc2c1ncn2[C@@H]1O[C@H](COCP(=O)(O)O)[C@@H](O)[C@H]1O [Compound 31] | > 1 µM | 
CC(C)(C)Nc1ncnc2c1ncn2[C@@H]1O[C@H](COCP(=O)(O)O)[C@@H](O)[C@H]1O [Compound 33, [(2R,3S,4R,5R)-5-[6-(tert-butylamino)purin-9-yl]-3,4-dihydroxy-tetrahydrofuran-2-yl]-methoxymethylphos-phonic acid] | > 1 µM | 
O=P(O)(O)COC[C@H]1O[C@@H](n2cnc3c(NC4CCC4)ncnc32)[C@H](O)[C@@H]1O [Compound 34, [(2R,3S,4R,5R)-5-[6-(cyclobutylamino)-purin-9-yl]-3,4-dihydroxy-tetrahydro-furan-2-yl]methoxy-methylphosphonic acid] | 0.1 to 1 µM | 
O=P(O)(O)COC[C@H]1O[C@@H](n2cnc3c(NC4CCCCC4)ncnc32)[C@H](O)[C@@H]1O [Compound 35, [(2R,3S,4R,5R)-5-[6-(cyclohexylamino)-purin-9-yl]-3,4-dihydroxy-tetrahydro-furan-2-yl]methoxy-methylphosphonic acid] | 0.1 to 1 µM | 
O=P(O)(O)COC[C@H]1O[C@@H](n2cnc3c2ncn2cnnc32)[C@H](O)[C@@H]1O [Compound 37] | > 1 µM | 
O=P(O)(O)COC[C@H]1O[C@@H](n2cnc3c2ncn2ccnc32)[C@H](O)[C@@H]1O [Compound 38] | > 1 µM | 
O=P(O)(O)COC[C@H]1O[C@@H](n2cnc3c(NCc4ccccc4)nc(C4CC4)nc32)[C@H](O)[C@@H]1O [Compound 39, [(2R,3S,4R,5R)-5-[6-(benzylamino)-2-cyclopropyl-purin-9-yl]-3,4-dihydroxy-tetrahydrofuran-2-yl]-methoxymethyl phos-phonic acid] | > 1 µM | 
C=Cc1nc(NC(C)C)c2ncn([C@@H]3O[C@H](COCP(=O)(O)O)[C@@H](O)[C@H]3O)c2n1 [Compound 40, [(2R,3S,4R,5R)-3,4-dihydroxy-5-[6-(iso-propylamino)-2-vinyl-purin-9-yl]tetrahydro-furan-2-yl]methoxy-methylphosphonic acid] | 0.1 to 1 µM | 
CCc1nc(NC(C)C)c2ncn([C@@H]3O[C@H](COCP(=O)(O)O)[C@@H](O)[C@H]3O)c2n1 [Compound 41, [(2R,3S,4R,5R)-5-[2-ethyl-6-(isopropyl-amino)purin-9-yl]-3,4-dihydroxy-tetrahydro-furan-2-yl]methoxy-methylphosphonic acid] | > 1 µM | 
O=c1c2ncn([C@@H]3O[C@H](COCP(=O)(O)O)[C@@H](O)[C@H]3O)c2ncn1Cc1ccccc1 [Compound 42, [(2R,3S,4R,5R)-5-(1-benzyl-6-oxo-purin-9-yl)-3,4-dihydroxy-tetrahydrofuran-2-yl]-methoxymethylphos-phonic acid] | > 1 µM | 
CC(C)Oc1ncnc2c1ncn2[C@@H]1O[C@H](COCP(=O)(O)O)[C@@H](O)[C@H]1O [Compound 44, [(2R,3S,4R,5R)-3,4-dihydroxy-5-(6-isopropoxypurin-9-yl)tetrahydrofuran-2-yl]methoxymethylphosphonic acid] | > 1 µM | 
